Laboratory results reported in PubChem BioAssay AID2060882 (Molecular Pharmacology Branch, DTP, NCI, 2025).

Test system: 898857-211-R-J1-PDC complex spheroids, growth % test/control
Test: Anticancer human tumor 898857-211-R-J1-PDC patient-derived melanoma cell line growth inhibition [RAS]
Conditions: for IC50: curve of first compound; for viability, T/C: stronger effect = lower value; active = viability on the fitted dose curve at most 10% of control; inactive = the rest
Method in brief: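 Multi-cell-type spheroids: tumor cells plus HUVEC endothelial cells and mesenchymal stem cells. RAS-pathway inhibitors were combined with targeted agents, each dosed in half-log steps down from clinical Cmax, or from 10 microM when Cmax was unknown.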

[1] = second compound 0.000949 µM, first compound 0.0316 µM
[2] = second compound 0.000949 µM, first compound 0.1 µM
[3] = second compound 0.000949 µM, first compound 0.316 µM
[4] = second compound 0.000949 µM, first compound 1 µM
[5] = second compound 0.003 µM, first compound 0.0316 µM
[6] = second compound 0.003 µM, first compound 0.1 µM
[7] = second compound 0.003 µM, first compound 0.316 µM
[8] = second compound 0.003 µM, first compound 1 µM
[9] = second compound 0.00949 µM, first compound 0.0316 µM
[10] = second compound 0.00949 µM, first compound 0.1 µM
[11] = second compound 0.00949 µM, first compound 0.316 µM
[12] = second compound 0.00949 µM, first compound 1 µM
[13] = second compound 0.03 µM, first compound 0.0316 µM
[14] = second compound 0.03 µM, first compound 0.1 µM
[15] = second compound 0.03 µM, first compound 0.316 µM
[16] = second compound 0.03 µM, first compound 1 µM
[17] = second compound 0.0949 µM, first compound 0.0316 µM
[18] = second compound 0.0949 µM, first compound 0.1 µM
[19] = second compound 0.0949 µM, first compound 0.316 µM
[20] = second compound 0.0949 µM, first compound 1 µM
[21] = second compound 0.3 µM, first compound 0.0316 µM
[22] = second compound 0.3 µM, first compound 0.1 µM
[23] = second compound 0.3 µM, first compound 0.316 µM
[24] = second compound 0.3 µM, first compound 1 µM
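Note: spheroids exposed to compound for seven days before readout.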
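Throughout, for viability, T/C: 100% = DMSO vehicle control wells.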

CC(=O)OC12COC1CC(O)C1(C)C(=O)C(O)C3=C(C)C(OC(=O)C(O)C(NC(=O)OC(C)(C)C)c4ccccc4)CC(O)(C(OC(=O)c4ccccc4)C21)C3(C)C (stereo unspecified) + CCn1c(-c2cc(N3CCN(C)CC3)cnc2C(C)OC)c2c3cc(ccc31)-c1csc(n1)CC(NC(=O)C1CC1C)C(=O)N1CCCC(N1)C(=O)OCC(C)(C)C2
< 31.6 nM: IC50 (second compound 0.000949 µM) | IC50 (second compound 0.003 µM) | IC50 (second compound 0.00949 µM) | IC50 (second compound 0.03 µM) | IC50 (second compound 0.0949 µM) | IC50 (second compound 0.3 µM)
inactive: viability, T/C [1] 11.2% | viability, T/C [2] 9.4% | viability, T/C [3] 9.05% | viability, T/C [4] 13.3% | viability, T/C (second compound 0.000949 µM, first compound 3.16 µM) 13.9% | viability, T/C (second compound 0.000949 µM, first compound 10 µM) 14.7% | viability, T/C [5] 11.4% | viability, T/C [6] 12.9% | viability, T/C [7] 9.53% | viability, T/C [8] 12.5% | viability, T/C (second compound 0.003 µM, first compound 3.16 µM) 12.7% | viability, T/C (second compound 0.003 µM, first compound 10 µM) 12.8% | viability, T/C [9] 10.9% | viability, T/C [10] 11.4% | viability, T/C [11] 13% | viability, T/C [12] 12.4% | viability, T/C (second compound 0.00949 µM, first compound 3.16 µM) 14.6% | viability, T/C (second compound 0.00949 µM, first compound 10 µM) 14.2% | viability, T/C [13] 10.9% | viability, T/C [14] 10.7% | viability, T/C [15] 13.3% | viability, T/C [16] 12.9% | viability, T/C (second compound 0.03 µM, first compound 3.16 µM) 15.6% | viability, T/C (second compound 0.03 µM, first compound 10 µM) 14.6% | viability, T/C [17] 12.1% | viability, T/C [18] 12.2% | viability, T/C [19] 12.3% | viability, T/C [20] 14.4% | viability, T/C (second compound 0.0949 µM, first compound 3.16 µM) 14.4% | viability, T/C (second compound 0.0949 µM, first compound 10 µM) 15.4% | viability, T/C [21] 12.9% | viability, T/C [22] 11.9% | viability, T/C [23] 11.8% | viability, T/C [24] 15.8% | viability, T/C (second compound 0.3 µM, first compound 3.16 µM) 14.9% | viability, T/C (second compound 0.3 µM, first compound 10 µM) 18.7%

CCc1c2c(nc3ccc(O)cc13)-c1cc3c(c(=O)n1C2)COC(=O)[C@]3(O)CC + CCn1c(-c2cc(N3CCN(C)CC3)cnc2C(C)OC)c2c3cc(ccc31)-c1csc(n1)CC(NC(=O)C1CC1C)C(=O)N1CCCC(N1)C(=O)OCC(C)(C)C2
3.37 nM: IC50 (second compound 0.00949 µM)
active: viability, T/C (second compound 0.000949 µM, first compound 0.0949 µM) 6.43% | viability, T/C (second compound 0.000949 µM, first compound 0.3 µM) 6.55% | viability, T/C (second compound 0.003 µM, first compound 0.0949 µM) 8.03% | viability, T/C (second compound 0.003 µM, first compound 0.3 µM) 5.94% | viability, T/C (second compound 0.00949 µM, first compound 0.0949 µM) 7.12% | viability, T/C (second compound 0.00949 µM, first compound 0.3 µM) 7.62% | viability, T/C (second compound 0.03 µM, first compound 0.0949 µM) 7.45% | viability, T/C (second compound 0.03 µM, first compound 0.3 µM) 5.98% | viability, T/C (second compound 0.0949 µM, first compound 0.0949 µM) 7.78% | viability, T/C (second compound 0.0949 µM, first compound 0.3 µM) 6.37% | viability, T/C (second compound 0.3 µM, first compound 0.03 µM) 9.8% | viability, T/C (second compound 0.3 µM, first compound 0.0949 µM) 7.03% | viability, T/C (second compound 0.3 µM, first compound 0.3 µM) 7.37%
3.78 nM: IC50 (second compound 0.0949 µM)
3.6 nM: IC50 (second compound 0.3 µM)
3.72 nM: IC50 (second compound 0.000949 µM)
3.84 nM: IC50 (second compound 0.03 µM)
3.54 nM: IC50 (second compound 0.003 µM)
inactive: viability, T/C (second compound 0.000949 µM, first compound 0.000949 µM) 78.6% | viability, T/C (second compound 0.000949 µM, first compound 0.003 µM) 55.3% | viability, T/C (second compound 0.000949 µM, first compound 0.00949 µM) 25.9% | viability, T/C (second compound 0.000949 µM, first compound 0.03 µM) 8.36% | viability, T/C (second compound 0.003 µM, first compound 0.000949 µM) 79.7% | viability, T/C (second compound 0.003 µM, first compound 0.003 µM) 53.8% | viability, T/C (second compound 0.003 µM, first compound 0.00949 µM) 25.5% | viability, T/C (second compound 0.003 µM, first compound 0.03 µM) 8.25% | viability, T/C (second compound 0.00949 µM, first compound 0.000949 µM) 82.9% | viability, T/C (second compound 0.00949 µM, first compound 0.003 µM) 52.6% | viability, T/C (second compound 0.00949 µM, first compound 0.00949 µM) 24.3% | viability, T/C (second compound 0.00949 µM, first compound 0.03 µM) 9.47% | viability, T/C (second compound 0.03 µM, first compound 0.000949 µM) 79.3% | viability, T/C (second compound 0.03 µM, first compound 0.003 µM) 56.2% | viability, T/C (second compound 0.03 µM, first compound 0.00949 µM) 27% | viability, T/C (second compound 0.03 µM, first compound 0.03 µM) 9.94% | viability, T/C (second compound 0.0949 µM, first compound 0.000949 µM) 86.1% | viability, T/C (second compound 0.0949 µM, first compound 0.003 µM) 55.3% | viability, T/C (second compound 0.0949 µM, first compound 0.00949 µM) 28% | viability, T/C (second compound 0.0949 µM, first compound 0.03 µM) 9.13% | viability, T/C (second compound 0.3 µM, first compound 0.000949 µM) 87.5% | viability, T/C (second compound 0.3 µM, first compound 0.003 µM) 55.5% | viability, T/C (second compound 0.3 µM, first compound 0.00949 µM) 20.6%

Nc1ccn(C2OC(CO)C(O)C2(F)F)c(=O)n1 (stereo unspecified) + CCn1c(-c2cc(N3CCN(C)CC3)cnc2C(C)OC)c2c3cc(ccc31)-c1csc(n1)CC(NC(=O)C1CC1C)C(=O)N1CCCC(N1)C(=O)OCC(C)(C)C2
5.47 nM: IC50 (second compound 0.0949 µM)
6.69 nM: IC50 (second compound 0.3 µM)
5.4 nM: IC50 (second compound 0.03 µM)
4.35 nM: IC50 (second compound 0.00949 µM)
active: viability, T/C [1] 4.42% | viability, T/C [2] 3.83% | viability, T/C [3] 4.13% | viability, T/C [4] 5.1% | viability, T/C [5] 4.34% | viability, T/C [6] 4.05% | viability, T/C [7] 5.71% | viability, T/C [8] 4.93% | viability, T/C [9] 4.77% | viability, T/C [10] 4.27% | viability, T/C [11] 4.44% | viability, T/C [12] 4.67% | viability, T/C [13] 4.69% | viability, T/C [14] 3.93% | viability, T/C [15] 5.09% | viability, T/C [16] 5.74% | viability, T/C [17] 4.97% | viability, T/C [18] 4.59% | viability, T/C [19] 5.07% | viability, T/C [20] 4.89% | viability, T/C [21] 5.64% | viability, T/C [22] 3.79% | viability, T/C [23] 4.58% | viability, T/C [24] 4.96%
inactive: viability, T/C (second compound 0.000949 µM, first compound 0.00316 µM) 74% | viability, T/C (second compound 0.000949 µM, first compound 0.01 µM) 15.3% | viability, T/C (second compound 0.003 µM, first compound 0.00316 µM) 64.6% | viability, T/C (second compound 0.003 µM, first compound 0.01 µM) 13.1% | viability, T/C (second compound 0.00949 µM, first compound 0.00316 µM) 63.7% | viability, T/C (second compound 0.00949 µM, first compound 0.01 µM) 14.4% | viability, T/C (second compound 0.03 µM, first compound 0.00316 µM) 78% | viability, T/C (second compound 0.03 µM, first compound 0.01 µM) 18% | viability, T/C (second compound 0.0949 µM, first compound 0.00316 µM) 72% | viability, T/C (second compound 0.0949 µM, first compound 0.01 µM) 25.8% | viability, T/C (second compound 0.3 µM, first compound 0.00316 µM) 88.6% | viability, T/C (second compound 0.3 µM, first compound 0.01 µM) 29.3%
4.37 nM: IC50 (second compound 0.003 µM)
5.06 nM: IC50 (second compound 0.000949 µM)
